Reference: article PMC7714071, “Interaction of amyloid beta with humanin and acetylcholinesterase is modulated by ATP” (FEBS Open Bio, 2020)

System: H1299 cells
Experiment: MTT cell viability, H1299
Type: cell-based, human
Conditions: 48 h, Fig. 7B; for effect of ATP on viability in HN-ID media: HN-immunodepleted media, versus no ATP; for effect on cell viability: control media, three experiments in triplicate
Experimental: Human NSCLC cell lines, A549 (ATCC CCL‐185) and H1299 (ATCC CRL‐5803), were purchased from the American Type Culture Collection (ATCC, Manassas, VA, USA). Cells were seeded as we reported earlier in 5 mL HyClone Dulbecco's modified Eagle's medium/nutrient mixture F‐12 (DMEM/F12) (GE Healthcare Life Sciences, Pittsburgh, PA, USA), supplemented with 10% Fetalgro bovine growth serum (FBS; RMBIO, Missoula, MT, USA), 50 U·mL^−1 penicillin, and […] streptomycin (Invitrogen, Life Technologies, Carlsbad, CA, USA) in 25‐cm^2 tissue culture flasks, and allowed to grow overnight in an incubator at 37 °C, 95% humidity, and 5% CO2. The cells were counted after trypan blue staining, with a hemocytometer.
The 3‐(4,5‐dimethylthiazol‐2‐yl)‐2,5‐diphenyl‐tetrazolium bromide (MTT) reduction assay (Sigma‐Aldrich), used to measure cell viability, was carried out as we reported earlier. Cells were seeded in 96‐well plates as indicated in 200 μL 10% FBS‐supplemented media per well and maintained overnight at 95% humidity and 5% CO2. After an overnight incubation, the media were replaced with 200 μL serum‐free media, and the cells were further incubated, without or with different treatments, for 24, 48, or 72 h. The final concentration of DMSO in each well never exceeded 0.1%. The cells were then incubated for 4 h with MTT (0.5 mg·mL^−1) in the dark. The media were carefully removed, and DMSO (100 μL) was added to dissolve the formazan crystals. The absorbance was measured at 570 nm in a plate reader. Untreated cells or wells containing only DMSO and media were used as a positive and negative control, respectively. Statistical analysis was conducted using […] PRISM version 8.4.3 for Windows. Significant values were considered at P < 0.05 and more significant values at P < 0.01, compared with the control.
Conditioned media were immunodepleted (ID) according to the methods previously described and our recently published report. Briefly, specific antibodies were bound to ELISA wells overnight (1 : 1000 dilution). The wells were then blocked and washed, then 300 μL of the conditioned medium (0.5 μg·μL^−1) treated as indicated, 72 h postserum starvation, was incubated with the antibodies bound to ELISA wells for 24 h. The ID media were then carefully removed and analyzed for the presence of the target protein or peptide by ELISA. The same amount of protein (3 µL of 600 µg·mL^−1 total protein) of each sample was analyzed in the experiments. Significant depletion (95–100%) was observed upon using each of the antibodies employed in this study.
Since addition of ATP appears to increase binding of HN to Aβ, and conversely, decreases the interaction of Aβ with AChE (Figs 3, 4, 5, 6), we tested the effect of added ATP on A549 and H1299 cell viability (Fig. 7). Exogenously added ATP at either 100 µM or 1 mM had no effect on viability of either A549 (Fig. 7A) or H1299 cells (Fig. 7B). […] To determine the effect of ID of AChE or HN in the absence or presence of added ATP on cell viability, ID media were prepared by first seeding 0.2 × 10^5 cells per well in 96‐well plates in 10% FBS‐supplemented media. The next day, the cells were incubated in serum‐free medium for 72 h, then ID of AChE or HN as described in Materials and methods. For cell viability assays, cells were seeded in 96‐well plates at 0.2 × 10^5 cells per well in 200 µL 10% FBS‐supplemented media followed by incubation in serum‐free medium for 12 h, then treated with the ID media for 48 h. […]

Nc1ncnc2c1ncn2[C@@H]1O[C@H](COP(=O)(O)OP(=O)(O)OP(=O)(O)O)[C@@H](O)[C@H]1O [ATP, Adenosine triphosphate] was tested, and the “effect of ATP on viability in AChE-depleted media” value (AChE-immunodepleted media) was “did not affect cell viability”, the “effect of ATP on viability in HN-ID media” value (ATP 100 µM) was “No change in cell viability” and the “effect on cell viability” value (ATP 100 µM) was “no effect”. The “effect of ATP on viability in HN-ID media” value (ATP 1 mM) was “No change in cell viability” and the “effect on cell viability” value (ATP 1 mM) was “no effect”.
